In patent US12157730B2, “Heteroaryl derivative, method for producing same, and pharmaceutical composition comprising same as effective component” (VORONOI INC., priority 2019, dated 2024):

Molecular target: T1, Ba/F3 cell EGFR Exon20 ins NPH (Homo sapiens, UniProt P00533, INS773NPH)
T1 construct: expressed in transfected cells; host or cells: Ba/F3
Experiment: Ba/F3 cell proliferation suppression, EGFR Exon20 ins NPH
Format: cell-based
Conditions: GI50 class; Ba/F3 cell line with NPH inserted at Exon20 of EGFR; 72 hours
How it was run: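 Cells (3000–5000/well) plated 24 h before compound, 12-point 3-fold dilutions at 0.3 nM to 50 um final; Ba/F3 lines grown with 5 ng/ml IL-3. Viability by CellTiter-Glo luminescence after 72 h, growth ratio vs control, GI50 from curves; triplicate.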

| SMILES | Ba/F3 (NPH) Activity |
| --- | --- |
| C=CC(=O)Nc1cc(Nc2cc(N3OCC[C@@H]3c3cccc(OC)c3)ncn2)c(OC)cc1N1CCN(C2COC2)CC1 [compound 730, N-(4-methoxy-5-((6-((R)-3-(3-methoxyphenyl)isoxazolidine-2-yl)pyrimidine-4-yl)amino)-2-(4-(oxetane-3-yl)piperazine-1-yl)phenyl) acrylamide] | B (50 nM ≤ GI50 < 500 nM) |
| C=CC(=O)Nc1cc(Nc2cc(N3OCC[C@@H]3c3cccc(F)c3Cl)ncn2)c(OC)cc1N1CCC(N2CCN(C3COC3)CC2)CC1 [Example 201, N-(5-((6-((R)-3-(2-chloro-3-fluorophenyl)isoxazolidine-2-yl)pyrimidine-4-yl)amino)-4-methoxy-2-(4-(4-(oxetane-3-yl)piperazine-1-yl)piperidine-1-yl)phenyl)acrylamide] | A (GI50 < 50 nM) |
| C=CC(=O)Nc1cc(Nc2cc(N3OCC[C@@H]3c3cccc(F)c3F)ncn2)c(OC)cc1N1CCN(CC)CC1 [compound 297, N-(5-((6-((R)-3-(2,3-difluorophenyl)isoxazolidine-2-yl)pyrimidine-4-yl)amino)-2-(4-ethylpiperazine-1-yl)-4-methoxyphenyl) acrylamide] | A (GI50 < 50 nM) |
| C=CC(=O)Nc1cc(Nc2cc(N3OCC[C@@H]3Cc3ccccc3)ncn2)c(OC)cc1N1CCN(C)CC1 [compound 945, N-(5-((6-((S)-3-benzylisoxazolidine-2-yl)pyrimidine-4-yl)amino)-4-methoxy-2-(4-methylpiperazine-1-yl)phenyl)acrylamide] | A (GI50 < 50 nM) |
| C=CC(=O)Nc1cc(Nc2cc(N3OCC[C@@H]3c3ccc(F)cc3F)ncn2)c(OC)cc1N1CCC(N2CC[C@@H](N(C)C)C2)CC1 [compound 429, N-(5-((6-((R)-3-(2,4-difluorophenyl)isoxazolidine-2-yl)pyrimidine-4-yl)amino)-2-(4-((R)-3-(dimethylamino)pyrolidine-1-yl)piperidine-1-yl)-4-methoxyphenyl) acrylamide] | A (GI50 < 50 nM) |
| C=CC(=O)Nc1cc(Nc2cc(N3OCC[C@@H]3c3ccccc3)ncn2)c(OC)cc1N1CCC(N2CCN(C3CCOCC3)CC2)CC1 [Example 102, N-(4-methoxy-5-((6-((R)-3-phenylisoxazolidine-2-yl)pyrimidine-4-yl)amino)-2-(4-(4-(tetrahydro-2H-pyran-4-yl)piperazine-yl)piperidine-yl)phenyl)acrylamide] | A (GI50 < 50 nM) |
| C=CC(=O)Nc1cc(Nc2cc(N3OCC[C@@H]3c3cc(F)ccc3F)ncn2)c(OC)cc1N1CCC(N2C[C@@H](C)N(C3CC3)C[C@H]2C)CC1 [Example 172, N-(2-(4-((2R,5R)-4-cyclopropyl-2,5-dimethylpiperazine-1-yl)piperidine-1-yl)-5-((6-((R)-3-(2,5-difluorophenyl)isoxazolidine-2-yl)pyrimidine-4-yl)amino)-4-methoxypheny) acrylamide] | A (GI50 < 50 nM) |
| C=CC(=O)Nc1cc(Nc2cc(N3OCC[C@@H]3c3cccc(F)c3F)ncn2)c(OC)cc1N(C)CCN(C)C [compound 924, N-(5-((6-((R)-3-(2,3-difluorophenyl)isoxazolidine-2-yl)pyrimidine-4-yl)amino)-2-((2-(dimethylamino)ethyl)(methyl)amino)-4-methoxyphenyl) acrylamide] | A (GI50 < 50 nM) |
| C=CC(=O)Nc1cc(Nc2cc(N3OCC[C@@H]3c3ccc(Cl)cc3)ncn2)c(OC)cc1N1CC[C@@H](N(C)C)C1 [compound 695, N-(5-((6-((R)-3-(4-chlorophenyl)isoxazolidine-2-yl)pyrimidine-4-yl)amino)-2-((R)-3-(dimethylamino)pyrolidine-1-yl)-4-methoxyphenyl) acrylamide] | B (50 nM ≤ GI50 < 500 nM) |
| C=CC(=O)Nc1cc(Nc2cc(N3OCC[C@@H]3c3cc(F)cc(Cl)c3F)ncn2)c(OC)cc1N1CCC(N2CCN(C3CC3)CC2)CC1 [compound 938, N-(5-((6-((R)-3-(3-chloro-2,5-difluorophenyl)isoxazolidine-2-yl)pyrimidine-4-yl)amino)-2-(4-(4-cyclopropylpiperazine-1-yl)piperidine-1-yl)-4-methoxyphenyl) acrylamide] | A (GI50 < 50 nM) |
| C=CC(=O)Nc1cc(Nc2cc(N3OCC[C@@H]3c3ccc(Cl)c(Cl)c3)ncn2)c(OC)cc1N1CCC(N2CCN(C3COC3)CC2)CC1 [compound 931, N-(5-((6-((R)-3-(3,4-dichlorophenyl)isoxazolidine-2-yl)pyrimidine-4-yl)amino)-4-methoxy-2-(4-(4-(oxetane-3-yl)piperazine-1-yl)piperidine-1-yl)phenyl) acrylamide] | A (GI50 < 50 nM) |
| C=CC(=O)Nc1cc(Nc2cc(N3OCC[C@@H]3c3ccc(C)nc3)ncn2)c(OC)cc1N1CCC(N2C[C@@H]3C[C@H]2CO3)CC1 [Example 228, N-(2-(4-((1S,4S)-2-oxa-5-azabicyclo[2.2.1]heptane-5-yl)piperidine-1-yl)-4-methoxy-5-((6-((R)-3-(6-methylpyridine-3-yl)isoxazolidine-2-yl)pyrimidine-4-yl)amino)phenyl)acrylamide] | A (GI50 < 50 nM) |
| C=CC(=O)Nc1cc(Nc2cc(N3OCC[C@@H]3c3cccc(F)c3F)ncn2)c(OC)cc1N1CCC(N2CCN(C)[C@@H](C)C2)CC1 [compound 335, N-(5-((6-((R)-3-(2,3-difluorophenyl)isoxazolidine-2-yl)pyrimidine-4-yl)amino)-2-(4-((S)-3,4-dimethylpiperazine-1-yl)piperidine-1-yl)-4-methoxyphenyl) acrylamide] | A (GI50 < 50 nM) |
| C=CC(=O)Nc1cc(Nc2cc(N3OCC[C@@H]3c3ccc(Cl)cc3F)ncn2)c(OC)cc1N1CCN(CC)CC1 [compound 401, N-(5-((6-((R)-3-(4-chloro-2-fluorophenyl)isoxazolidine-2-yl)pyrimidine-4-yl)amino)-2-(4-ethylpiperazine-1-yl)-4-methoxyphenyl) acrylamide] | A (GI50 < 50 nM) |
| C=CC(=O)Nc1cc(Nc2cc(N3OCC[C@@H]3c3ccc(Cl)c(F)c3)ncn2)c(OC)cc1N1CCC(N2C[C@H]3C[C@@H]2CO3)CC1 [Example 256, N-(2-(4-((1R,4R)-2-oxa-5-azabicyclo[2.2.1]heptane-5-yl)piperidine-1-yl)-5-((6-((R)-3-(4-chloro-3-fluorophenyl)isoxazolidine-2-yl)pyrimidine-4-yl)amino)-4-methoxyphenyl) acrylamide] | A (GI50 < 50 nM) |
| C=CC(=O)Nc1cc(Nc2cc(N3OCC[C@@H]3Cc3cccc(F)c3)ncn2)c(OC)cc1N1CCC(N2C[C@H]3CC[C@@H](C2)N3C2CC2)CC1 [compound 995, N-(2-(4-((1R,5S)-8-cyclopropyl-3,8-diazabicyclo [3.2.1]octan-3-yl)piperidine-1-yl)-5-((6-((S)-3-(3-fluorobenzyl)isoxazolidine-2-yl)pyrimidine-4-yl)amino)-4-methoxyphenyl) acrylamide] | A (GI50 < 50 nM) |
| C=CC(=O)Nc1cc(Nc2cc(N3OCC[C@@H]3c3cccc(F)c3)ncn2)c(OC)cc1N1CCN(C(C)=O)CC1 [compound 831, N-(2-(4-acetylpiperazine-1-yl)-5-((6-((R)-3-(3-fluorophenyl)isoxazolidine-2-yl)pyrimidine-4-yl)amino)-4-methoxyphenyl) acrylamide] | A (GI50 < 50 nM) |
| C=CC(=O)Nc1cc(Nc2cc(N3OCC[C@@H]3c3ccc(F)c(Cl)c3F)ncn2)c(OC)cc1N1CC[C@@H](N(C)C)C1 [compound 599, N-(5-((6-((R)-3-(3-chloro-2,4-difluorophenyl)isoxazolidine-2-yl)pyrimidine-4-yl)amino)-2-((R)-3-(dimethylamino)pyrolidine-1-yl)-4-methoxyphenyl) acrylamide] | A (GI50 < 50 nM) |
| C=CC(=O)Nc1cc(Nc2cc(N3OCC[C@@H]3c3cccc(Cl)c3)ncn2)c(OC)cc1N1CCC(N2C[C@@H]3C[C@H]2CO3)CC1 [compound 462, N-(2-(4-((1S,4S)-2-oxa-5-azabicyclo [2.2.1]heptane-5-yl)piperidine-1-yl)-5-((6-((R)-3-(3-chlorophenyl)isoxazolidine-2-yl)pyrimidine-4-yl)amino)-4-methoxyphenyl) acrylamide] | A (GI50 < 50 nM) |
| C=CC(=O)Nc1cc(Nc2cc(N3OCC[C@@H]3c3ccc(C)nc3)ncn2)c(OC)cc1N1CCN(C2CC2)CC1 [Example 46, N-(2-(4-cyclopropylpiperazine-1-yl)-4-methoxy-5-((6-((R)-3-(6-methylpyridine-3-yl)isoxazolidine-2-yl)pyrimidine-4-yl)amino)phenyl) acrylamide] | C (500 nM ≤ GI50 < 5000 nM) |
| C=CC(=O)Nc1cc(Nc2cc(N3OCC[C@@H]3c3cccc(Cl)c3)ncn2)c(OC)cc1N1CCN(C)CC1 [compound 360, N-(5-((6-((R)-3-(3-chlorophenyl)isoxazolidine-2-yl)pyrimidine-4-yl)amino)-4-methoxy-2-(4-methylpiperazine-1-yl)phenyl)acrylamide] | A (GI50 < 50 nM) |
| C=CC(=O)Nc1cc(Nc2cc(N3OCC[C@@H]3c3ccc(F)c(Cl)c3)ncn2)c(OC)cc1N1CCC(N2CC[C@@H](N(C)C)C2)CC1 [compound 769, N-(5-((6-((R)-3-(3-chloro-4-fluorophenyl)isoxazolidine-2-yl)pyrimidine-4-yl)amino)-2-(4-((R)-3-(dimethylamino)pyrolidine-1-yl)piperidine-1-yl)-4-methoxyphenyl) acrylamide] | A (GI50 < 50 nM) |
| C=CC(=O)Nc1cc(Nc2cc(N3OCC[C@@H]3c3cccc(OC)c3)ncn2)c(OC)cc1N1CCC(N2CCC(N(C)C)CC2)CC1 [compound 781, N-(2-(4-(dimethylamino)-[1,4'-bipiperidine]-1'-yl)-4-methoxy-5-((6-((R)-3-(3-methoxyphenyl)isoxazolidine-2-yl)pyrimidine-4-yl)amino)phenyl)acrylamide] | B (50 nM ≤ GI50 < 500 nM) |
